Results as given in publication PMC10877733, “Discovery and Characterization of VU0542270, the First Selective Inhibitor of Vascular Kir6.1/SUR2B KATP Channels” (Molecular Pharmacology, 2024).

Legend:
[1] = Intrinsic clearance in liver microsomes, human; format: in vitro ADME
Experimental: The in vitro intrinsic clearance (CLint) of VU0542270 was investigated in commercially obtained hepatic microsomes from rat, mouse, and human donors using the substrate depletion (i.e., loss-of-parent versus time, or t1/2 method) approach with analyte detection via LC-MS/MS. For each species, mean per cent parent remaining values at each time point were calculated from replicates raw data (analyte:IS peak area ratios) and used to determine in vitro t1/2 and CLint.
Experiments were carried out using a robot-assisted liquid handling system (TECAN model Evo 200). VU0542270 was incubated (1 µM final concentration) in buffer (100 mM potassium phosphate, pH 7.4, with 3 mM MgCl2) containing hepatic microsomes (0.5 mg/mL final concentration) from multiple species, discretely, at 37°C under constant orbital shaking. After 5 minutes (preincubation), reactions were initiated by the addition of NADPH (1 mM final concentration). At selected time intervals (0, 3, 7, 15, 25, and 45 minutes) post addition of NADPH, aliquots (50 µL) were taken and placed into a 96-shallow-well plate containing ice-cold acetonitrile (150 µL) with carbamazepine (IS, 50 nM). The plates were then centrifuged (3000 rcf at 4°C) for 10 minutes. […]
Predicted hepatic clearance (CLhep) was calculated using the following equation: [drawing 4] […]

[2] = Brain:plasma distribution in rat; format: in vivo; conditions: male, Sprague Dawley, brain and plasma, IV 0.2 mg/kg, 15 minutes postdose
Experimental: VU0542270 was formulated as a solution in ethanol, PEG400, and saline (1:4:5 v/v, respectively) and administered to male Sprague Dawley rats (n = 1) intravenously at 0.2 mg/kg. At 15 minutes postdose, a blood sample was collected terminally into chilled K2EDTA anticoagulant-fortified tubes and immediately placed on wet ice. The blood sample was then centrifuged (1700 rcf, 5 minutes, 4°C) to obtain a plasma sample. At the same postadministration time point(s), a whole-brain sample was obtained by rapid dissection, rinsing with PBS, and immediate freezing in individual tissue collection boxes (dry ice). All brain and plasma samples were stored at −80°C until analysis by LC-MS/MS. In vivo brain:plasma distribution partition coefficient of VU0542270 was determined from the observed animal brain versus plasma concentrations.
Plasma samples from the in-life phases of the studies were thawed at ambient temperature (benchtop), and then aliquots (20 µL per sample) were transferred to a 96-shallow-well (V-bottom) plate. […]
Prepared samples were injected (10 µL each) onto an AB Sciex triple quad-4500 mass spectrometer system with an Agilent 1290 Infinity Binary Pump and multisampler. […] Quantitation of VU0542270 was performed via AB Sciex Analyst software using the raw analyte:IS peak area ratios. […]

- Predicted CLhep,u (human) ([1]; corrected to plasma unbound fraction): 1.3 mL/min per kg
- Predicted CLhep (human) ([1]; from microsomal CLint): 19 mL/min per kg
- Kp at 0.25 h [2]: 0.11
Structure (SMILES): Cc1nc(-c2cccs2)sc1CNC(=O)Nc1cccs1 [VU0542270]
